The test system of one data set is HepG2 cells. Description: Cytotoxicity in HepG2 cells, Resazurin assay. The conditions noted are these: read-out: TOX-HepG2-4 d CC50; HepG2 cells incubated for 4 days, viability by Resazurin assay. For orientation: Alamar Blue is a resazurin reagent that responds to reducing activity.
The next data set relates to HBV. Description: anti HBV activity, HepG2.117 cell line, intracellular HBV DNA by realtime PCR. The data set is classed as cell-based. The following applies: HepG2.117 cell line (Tet-off), 3 days of treatment, intracellular HBV DNA quantified by realtime PCR, read-out: HBV-AVE-HepG2.117 EC50. Put shortly: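 HepG2.117 cells, a Tet-off line that replicates HBV without doxycycline, were induced and then treated in duplicate with serially diluted compound. After 3 days, intracellular HBV DNA was quantified by real-time PCR with an HBV-specific primer set and probe.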

The mark [1] stands for this setting: Hepatitis B virus, HepG2.117, 72 h.

Experimental findings from patent US10875876B2, “Cyclized sulfamoylarylamide derivatives and the use thereof as medicaments for the treatment of hepatitis B” (priority 2015, dated 2020) are described below.

Where two headings read alike, the source gives them in different places.

On to `Cn1cc2c(c1C(=O)Nc1ccnc(C(F)(F)F)c1)CCC(C(F)(F)F)NS2(=O)=O` (single isomer, unassigned) [Compound 59b, 7-methyl-1,1-dioxo-3-(trifluoromethyl)-N-[2-(trifluoromethyl)-4-pyridyl]-2,3,4,5-tetrahydropyrrolo[3,4-f]thiazepine-6-carboxamide], for which, in the data set on HepG2 cells, the CC50 was above 25 µM. Also, the EC50 in the data set on HBV was found to be 0.14 µM.
The corresponding values for `Cn1cc2c(c1C(=O)Nc1cc(F)c(F)c(F)c1)OC[C@H](C(O)C1CC1)NS2(=O)=O` (single isomer, unassigned) [Compound 208b, 3-[cyclopropyl(hydroxy)methyl]-7-methyl-1,1-dioxo-N-(3,4,5-trifluorophenyl)-3,4-dihydro-2H-pyrrolo[3,4-b][1,4,5]oxathiazepine-6-carboxamide] are above 25 µM and 0.011 µM.
The corresponding values for `Cn1cc2c(c1C(=O)Nc1ccc(F)c(C(F)F)c1)OC[C@H](C(O)C1CC1)NS2(=O)=O` (stereo partly drawn) [Compound 115b, (3R)-3-[cyclopropyl(hydroxy)methyl]-N-[3-(difluoromethyl)-4-fluoro-phenyl]-7-methyl-1,1-dioxo-3,4-dihydro-2H-pyrrolo[3,4-b][1,4,5]oxathiazepine-6-carboxamide] are above 25 µM and 0.007 µM.
As to `Cn1cc2c(c1C(=O)Nc1ccc(F)c(F)c1)OC[C@@H](C(O)C1CC1)NS2(=O)=O` (single isomer, unassigned) [Compound 92b], the CC50 in the data set on HepG2 cells was above 25 µM. Further, the EC50 in the data set on HBV was 0.17 µM.
On to `CC(C)C(O)C1COc2c(cn(C)c2C(=O)Nc2ccc(F)c(C#N)c2)S(=O)(=O)N1` (stereo not drawn) [Compound 119b, N-(3-cyano-4-fluoro-phenyl)-3-(1-hydroxy-2-methyl-propyl)-7-methyl-1,1-dioxo-3,4-dihydro-2H-pyrrolo[3,4-b][1,4,5]oxathiazepine-6-carboxamide], for which, in the data set on HepG2 cells, the CC50 is above 25 µM. Moreover, the EC50 in the data set with HBV came to 0.006 µM.
The corresponding values for `CC1C/C=C\c2c(cn(C)c2C(=O)Nc2ccc(F)c(F)c2)S(=O)(=O)N1` (single isomer, unassigned) [Compound 15b, (5Z)—N-(3,4-difluorophenyl)-3,8-dimethyl-1,1-dioxo-3,4-dihydro-2H-pyrrolo[3,4-g]thiazocine-7-carboxamide] are above 25 µM and above 0.5 µM.
In the same order, the values of `CCC(O)[C@H]1COc2c(cn(C)c2C(=O)Nc2ccc(F)c(C(F)F)c2)S(=O)(=O)N1` (stereo partly drawn) [Compound 124b, (3R)—N-[3-(difluoromethyl)-4-fluoro-phenyl]-3-(1-hydroxypropyl)-7-methyl-1,1-dioxo-3,4-dihydro-2H-pyrrolo[3,4-b][1,4,5]oxathiazepine-6-carboxamide] are above 25 µM and 0.004 µM.
Turning to `Cn1ccc(CC2(C)COc3c(cn(C)c3C(=O)Nc3ccnc(C(F)F)c3)S(=O)(=O)N2)n1` (single isomer, unassigned) [Compound 217b, N-[2-(difluoromethyl)-4-pyridyl]-3,7-dimethyl-3-[(1-methylpyrazol-3-yl)methyl]-1,1-dioxo-2,4-dihydropyrrolo[3,4-b][1,4,5]oxathiazepine-6-carboxamide], the CC50 with HepG2 cells is above 25 µM. The EC50 in the data set with HBV turned out to be 0.1 µM.
As for `Cc1cccc(C2(C)COc3c(cn(C)c3C(=O)Nc3ccc(F)c(C(F)F)c3)S(=O)(=O)N2)n1` (single isomer, unassigned) [Compound 177b, N-[3-(difluoromethyl)-4-fluoro-phenyl]-3,7-dimethyl-3-(6-methyl-2-pyridyl)-1,1-dioxo-2,4-dihydropyrrolo[3,4-b][1,4,5]oxathiazepine-6-carboxamide], in the data set on HepG2 cells, the CC50 was above 25 µM. In addition, in the data set with HBV (setting [1]), the EC50 was 0.004 µM.
Regarding `Cn1cc2c(c1C(=O)Nc1ccc(F)c(F)c1)O[C@@H](C(F)(F)F)[C@H](CO)NS2(=O)=O` [compound 244], in the data set on HepG2 cells, the CC50 is above 25 µM. Further, in the data set with HBV, the EC50 is above 0.5 µM.
The corresponding values for `C[C@@H]1Oc2c(cn(C)c2C(=O)Nc2ccc(F)c(C#N)c2)S(=O)(=O)N[C@@H]1CO` [compound 235] are above 25 µM and above 0.5 µM.
`Cn1cc2c(c1C(=O)Nc1cc(F)c(F)c(F)c1)CCC(C(C)(C)O)NS2(=O)=O` (single isomer, unassigned) [Compound 149b, 3-(1-hydroxy-1-methyl-ethyl)-7-methyl-1,1-dioxo-N-(3,4,5-trifluorophenyl)-2,3,4,5-tetrahydropyrrolo[3,4-f]thiazepine-6-carboxamide]: the CC50 with HepG2 cells is above 25 µM. The EC50 in the data set on HBV stood at 0.01 µM.
In the same order, the values of `Cn1ccc(C2(C)COc3c(cn(C)c3C(=O)Nc3ccc(F)c(F)c3)S(=O)(=O)N2)n1` (single isomer, unassigned) [Compound 192b, N-(3,4-difluorophenyl)-3,7-dimethyl-3-(1-methylpyrazol-3-yl)-1,1-dioxo-2,4-dihydropyrrolo[3,4-b][1,4,5]oxathiazepine-6-carboxamide] are above 25 µM and 0.024 µM.
The corresponding values for `CC1COc2c(cn(C)c2C(=O)Nc2ccc(F)c(F)c2)S(=O)(=O)N1` (single isomer, unassigned) [Compound 14b, N-(3,4-difluorophenyl)-3,7-dimethyl-1,1-dioxo-3,4-dihydro-2H-pyrrolo-[3,4-b][1,4,5]oxathiazepine-6-carboxamide] are above 25 µM and 0.078 µM.
The corresponding values for `Cc1cc(CC2(C)COc3c(cn(C)c3C(=O)Nc3ccnc(C(F)F)c3)S(=O)(=O)N2)no1` (single isomer, unassigned) [Compound 209b, N-[2-(difluoromethyl)-4-pyridyl]-3,7-dimethyl-3-[(5-methylisoxazol-3-yl)methyl]-1,1-dioxo-2,4-dihydropyrrolo[3,4-b][1,4,5]oxathiazepine-6-carboxamide] are above 25 µM and 0.018 µM.
For `CCC(O)[C@H]1COc2c(cn(C)c2C(=O)Nc2ccc(F)c(F)c2)S(=O)(=O)N1` (stereo partly drawn) [Compound 130b, (3R)—N-(3,4-difluorophenyl)-3-(1-hydroxypropyl)-7-methyl-1,1-dioxo-3,4-dihydro-2H-pyrrolo[3,4-b][1,4,5]oxathiazepine-6-carboxamide], the CC50 in the data set with HepG2 cells is above 25 µM. Besides, the EC50 with HBV amounted to 0.012 µM.
Take `CC(C)C1C=Cc2c(cn(C)c2C(=O)Nc2ccc(F)c(F)c2)S(=O)(=O)N1` (single isomer, unassigned) [Compound 79b, N-(3,4-difluorophenyl)-3-isopropyl-7-methyl-1,1-dioxo-2,3-dihydropyrrolo[3,4-f]thiazepine-6-carboxamide]: in the data set with HepG2 cells, the CC50 was above 25 µM. Moreover, the EC50 with HBV amounted to 0.002 µM.
In the same order, the values of `CCC(O)[C@@H]1COc2c(cn(C)c2C(=O)Nc2ccc(F)c(C(F)F)c2)S(=O)(=O)N1` (single isomer, unassigned) [Compound 144b, N-[3-(difluoromethyl)-4-fluoro-phenyl]-3-(1-hydroxypropyl)-7-methyl-1,1-dioxo-3,4-dihydro-2H-pyrrolo[3,4-b][1,4,5]oxathiazepine-6-carboxamide] are above 25 µM and 0.063 µM.
The corresponding values for `Cc1cc(CC2(C)COc3c(cn(C)c3C(=O)Nc3ccc(F)c(F)c3)S(=O)(=O)N2)n(C)n1` (single isomer, unassigned) [Compound 175b, N-(3,4-difluorophenyl)-3-[(2,5-dimethylpyrazol-3-yl)methyl]-3,7-dimethyl-1,1-dioxo-2,4-dihydropyrrolo[3,4-b][1,4,5]oxathiazepine-6-carboxamide] are above 25 µM and 0.003 µM.
Consider `CC(NCC(F)(F)F)C1CCc2c(cn(C)c2C(=O)Nc2cc(F)c(F)c(F)c2)S(=O)(=O)N1` (single isomer, unassigned) [Compound 218b, 7-methyl-1,1-dioxo-3-[1-(2,2,2-trifluoroethylamino)ethyl]-N-(3,4,5-trifluorophenyl)-2,3,4,5-tetrahydropyrrolo[3,4-f]thiazepine-6-carboxamide], for which the CC50 with HepG2 cells was above 25 µM. Moreover, the EC50 with HBV stood at 0.079 µM.
Turning to `Cc1cc(CC2(C)COc3c(cn(C)c3C(=O)Nc3cc(F)c(F)c(F)c3)S(=O)(=O)N2)no1` (single isomer, unassigned) [Compound 170b, 3,7-dimethyl-3-[(5-methylisoxazol-3-yl)methyl]-1,1-dioxo-N-(3,4,5-trifluorophenyl)-2,4-dihydropyrrolo[3,4-b][1,4,5]oxathiazepine-6-carboxamide], the CC50 in the data set on HepG2 cells was above 25 µM. Also, the EC50 with HBV (setting [1]) was determined as 0.007 µM.
For `Cn1cc2c(c1C(=O)Nc1ccc(F)c(F)c1)OCC(C)(c1cnccn1)NS2(=O)=O` (single isomer, unassigned) [Compound 145b, N-(3,4-difluorophenyl)-3,7-dimethyl-1,1-dioxo-3-pyrazin-2-yl-2,4-dihydropyrrolo[3,4-b][1,4,5]oxathiazepine-6-carboxamide], the CC50 in the data set with HepG2 cells is above 25 µM. The EC50 with HBV turned out to be 0.06 µM.
In the same order, the values of `Cn1cc2c(c1C(=O)Nc1ccc(F)c(C#N)c1)OCC(C)(CO)NS2(=O)=O` (single isomer, unassigned) [Compound 210b, N-(3-cyano-4-fluoro-phenyl)-3-(hydroxymethyl)-3,7-dimethyl-1,1-dioxo-2,4-dihydropyrrolo[3,4-b][1,4,5]oxathiazepine-6-carboxamide] are above 25 µM and 0.034 µM.
With `Cc1cc(CC2(C)COc3c(cn(C)c3C(=O)Nc3ccc(F)c(F)c3)S(=O)(=O)N2)no1` (single isomer, unassigned) [Compound 162b, N-(3,4-difluorophenyl)-3,7-dimethyl-3-[(5-methylisoxazol-3-yl)methyl]-1,1-dioxo-2,4-dihydropyrrolo[3,4-b][1,4,5]oxathiazepine-6-carboxamide], in the data set on HepG2 cells, the CC50 is above 25 µM. In the data set on HBV, the EC50 came to 0.011 µM.

For orientation: CC50 means the concentration that lowers cell viability or growth by half. The EC50 is the concentration giving half of the maximal effect.
